{
  "source": "patent US11304956B2",
  "about": "“Use of 7-bromo-5-(O-chlorophenyl)-3-propoxy-1,2-dihydro-3H-1,4-benzodiazepin-2-one for inhibition of neuropathic pain and seizures of different etiology” (priority 2016, dated 2022)",
  "key": {"[1]": {"tested_on": "pentylenetetrazole-induced convulsions", "experiment": "Pentylenetetrazole-induced seizures", "assay_type": "in vivo, non-linear male mice", "conditions": "Mus musculus, sc; mice; pentylenetetrazole 120 mg/kg subcutaneously; interval (0.83-0.97) printed on the next line; read-out: Anticonvulsive activity (ED50), Pentylenetetrazole", "description": "(§1) In many cases, the presence of anticonvulsant (antiepileptic) effect of the compounds correlates with analgesic properties on corresponding models of neuralgia. As a general step is a primary screening of new anticonvulsant compounds on rodents with the help of pentylenetetrazole test and MES (maximal electroshock seizures) as they have a qualitative difference in development and manifestations of seizures. It is believed that the compound ability to prevent the MES-induced seizures is connected with impulse spread inhibition throughout the central nervous system. It is believed that the ability to prevent the MES-induced seizures development indicates the potential efficacy of the compound in the preventing propagation of a pulse along the neural tissue (see Tompson E. Medicines. Bioscreening/Under the editorship of A. V. Stefanova.-K.: Avitsenna, 1998.—250 p.).\nThe experiments were performed on non-linear male mice weighing 19-29 g. Pentylenetetrazole was administered subcutaneously in the cervical region of the back. […]\nFor MES-induced seizures experimental animals were exposed to electric stimulation through the corneal electrodes (50 Hz, 50 mA for mice during 0.2 s). The number of animals with the maximum tonic extension of the hind limbs, which occurs in almost 100% of the animals in the control group, was calculated. […]"}, "[2]": {"tested_on": "MES-induced seizures", "experiment": "Maximal electroshock (MES) seizures", "assay_type": "in vivo, non-linear male mice", "conditions": "Mus musculus; mice; corneal electrodes 50 Hz, 50 mA, 0.2 s; interval in brackets; read-out: Anticonvulsive activity (ED50), MES", "description": "as §1\nFor MES-induced seizures experimental animals were exposed to electric stimulation through the corneal electrodes (50 Hz, 50 mA for mice during 0.2 s). The number of animals with the maximum tonic extension of the hind limbs, which occurs in almost 100% of the animals in the control group, was calculated. For the statistically significant determination of ED50, 3 doses of the test compound were used; the effect of each dose was studied in 6-8 animals."}, "[3]": {"tested_on": "formalin test in mice", "experiment": "Formalin test (licking time of the injected paw)", "assay_type": "in vivo, white male non-linear mice", "conditions": "for I phase, % effect (decrease in the time of licking of the paw): phase 0-5 min; for II phase, effect (decrease in the time of licking of the paw): phase 15-40 min"}, "[4]": {"tested_on": "thermal tail flick test in rats", "experiment": "Model of thermal stimulation (tail-flick)", "assay_type": "in vivo", "conditions": "n=10", "description": "The problem was solved by experimental study of the antinociceptive action of the test compound 1 on the model of NP in rats and on the model of pain with the participation of central mechanisms, in particular, thermal tail flick test in rats. Based on the available data on the positive response of constant pain to anticonvulsants in the acute and paroxysmal phase and considering structure 1, we performed an evaluation of the anticonvulsant action of the compound on models of pentamethylenetetrazol-induced convulsions and seizures caused by maximal electroshock (MES). We have taken into account the possible side reaction (ulcerogenic effect) of the compound in experimental animals, expressed in the formation of defects in the mucous membrane of the gastrointestinal tract or in provocation of already existing peptic ulcer relapses. The probability of ulcers formation of medicinal origin is especially high during administration of non-steroidal anti-inflammatory drugs in high doses and in combination with their long-term use in the form of tablets.\nA more pronounced effect was after parenteral administration (see Table 2). Control: solvent (twin, distilled water, pH-corrector). Results of the study of Compound 1 and ketorolac analgesic effects on the model of thermal stimulation (tail-flick) as degree of pain sensitivity threshold increase in relation to the initial level (%), n=10, are given in Table 2."}, "[5]": {"tested_on": "gastric mucosa", "experiment": "Ulcerogenic effect, chronic experiment (28 days intragastric)", "assay_type": "in vivo, rats", "conditions": "0.5 mg/kg intragastrally for 28 days, n = 14", "method": "Evaluation of ulcerogenic action was carried out on a 4-score scale:\n0 score—no damage; 0.5 score—hyperemia (blood vessels overflow)\n1 score—single minor lesions (1-3 point hemorrhages or small ulcers)\n2 score—multiple (more than 3) lesions (erosions, pinpoint hemorrhages) or 1 large ulcer\n3 score—significant and massive damages (erosions, hemorrhages) of the gastric mucosa with significant size (diameter up to 4 mm)\n4 score—gross injuries (massive hemorrhages, erosions, perforations) that cover the entire surface of the gastric mucosa.\nThe average multiplicity index of damage to the gastric mucosa (the number of ulcers per animal) and the severity of the damage (in scores) were determined.\nTo determine the safety of this compound in a chronic trial during long-term administration, it was administered to rats for 28 days at a dose close to ED50 by analgesic effect (0.5 mg/kg).\nThe data presented indicate that there is no serious damage to the stomach from the test compound, even when administered at very high doses, several orders higher than the average effective doses, and which are close to the upper limit of permitted doses that can be administered to rats once. Therefore, at the next stage it became reasonable to determine the effect of Compound 1 on the stomach after prolonged use (28 days) in an average effective dose of 0.5 mg/kg."}, "[6]": {"tested_on": "acetic acid \"writhing\" test", "conditions": "intraperitoneal administration of acetic acid; earlier work of the applicants; cited from earlier work"}, "[7]": {"conditions": "0.01 mg/kg intraperitoneally 40 min before formalin"}, "[8]": {"conditions": "0.10 mg/kg intraperitoneally 40 min before formalin"}, "[9]": {"conditions": "3.00 mg/kg intraperitoneally 40 min before formalin"}},
  "data": [
    {"smiles": "CCCOC1N=C(c2ccccc2Cl)c2cc(Br)ccc2NC1=O", "note": "(stereo not drawn) [Compound 1, 7-bromo-5-(o-chlorophenyl)-3-propoxy-1,2-dihydro-3H-1,4-benzodiazepin-2-one]", "values": [
      {"measurement": "ED50", "setting": "[1]", "value": 0.91, "unit": "mg/kg"},
      {"measurement": "ED50", "setting": "[2]", "value": 8.2, "unit": "mg/kg"},
      {"measurement": "I phase, % effect (decrease in the time of licking of the paw)", "setting": "[3]; [7]", "value": "15.00 ± 4.11", "unit": "%"},
      {"measurement": "II phase, effect (decrease in the time of licking of the paw)", "setting": "[3]; [7]", "value": "32.10 ± 10.10"},
      {"measurement": "I phase, % effect (decrease in the time of licking of the paw)", "setting": "[3]; [8]", "value": "76.00 ± 6.50", "unit": "%"},
      {"measurement": "II phase, effect (decrease in the time of licking of the paw)", "setting": "[3]; [8]", "value": "54.00 ± 8.60"},
      {"measurement": "I phase, % effect (decrease in the time of licking of the paw)", "setting": "[3]; [9]", "value": "91.10 ± 18.80", "unit": "%"},
      {"measurement": "II phase, effect (decrease in the time of licking of the paw)", "setting": "[3]; [9]", "value": "98.4 ± 15.0"},
      {"measurement": "Activity in the first phase relative to diclofenac sodium", "setting": "[3]; Compound 1 at 0.1 mg/kg vs diclofenac sodium at 10 mg/kg, first phase", "value": 1.5, "unit": "times"},
      {"measurement": "Degree of pain sensitivity threshold increase in relation to the initial level", "setting": "[4]; 0.5 mg/kg intraperitoneally, 1 hour", "value": "+27.4%"},
      {"measurement": "Degree of pain sensitivity threshold increase in relation to the initial level", "setting": "[4]; 0.5 mg/kg intraperitoneally, 2 hours", "value": "+38.4%"},
      {"measurement": "Degree of pain sensitivity threshold increase in relation to the initial level", "setting": "[4]; 0.5 mg/kg intraperitoneally, 4 hours", "value": "+42.3%"},
      {"measurement": "Degree of pain sensitivity threshold increase in relation to the initial level", "setting": "[4]; 0.5 mg/kg intraperitoneally, 6 hours", "value": "+34.9%"},
      {"measurement": "Degree of pain sensitivity threshold increase in relation to the initial level", "setting": "[4]; 0.5 mg/kg orally, 1 hour", "value": "+13.2%"},
      {"measurement": "Degree of pain sensitivity threshold increase in relation to the initial level", "setting": "[4]; 0.5 mg/kg orally, 2 hours", "value": "+22.4%"},
      {"measurement": "Degree of pain sensitivity threshold increase in relation to the initial level", "setting": "[4]; 0.5 mg/kg orally, 4 hours", "value": "+21.7%"},
      {"measurement": "Degree of pain sensitivity threshold increase in relation to the initial level", "setting": "[4]; 0.5 mg/kg orally, 6 hours", "value": "+8.77%"},
      {"measurement": "Degree of pain sensitivity threshold increase in relation to the initial level", "setting": "[4]; 3 mg/kg orally, 1 hour", "value": "+60.7%"},
      {"measurement": "Degree of pain sensitivity threshold increase in relation to the initial level", "setting": "[4]; 3 mg/kg orally, 2 hours", "value": "+83.3%"},
      {"measurement": "Degree of pain sensitivity threshold increase in relation to the initial level", "setting": "[4]; 3 mg/kg orally, 4 hours", "value": "+65.2%"},
      {"measurement": "Degree of pain sensitivity threshold increase in relation to the initial level", "setting": "[4]; 3 mg/kg orally, 6 hours", "value": "+39.4%"},
      {"measurement": "Number of animals with different degrees lesions of the gastric mucosa, score 1", "setting": "[5]", "value": 4},
      {"measurement": "Number of animals with different degrees lesions of the gastric mucosa, score 3", "setting": "[5]", "value": 0},
      {"measurement": "Number of animals with different degrees lesions of the gastric mucosa, score 4", "setting": "[5]", "value": 0},
      {"measurement": "The multiplicity of damage", "setting": "[5]", "value": "0.5±0.23"},
      {"measurement": "Average score", "setting": "[5]; 4-score scale", "value": "0.4±0.17"},
      {"measurement": "Analgesic activity in the \"writhing\" test", "setting": "[6]", "value": "high analgesic activity"}
    ]}
  ]
}
